Test [1] addresses T1, full-length proMMP9(1-707) (SEQ ID NO:1), activation by catalytic MMP3 (Homo sapiens, UniProt P14780, R574P).
T1 construct: made in house; host or cells: HEK293 (proMMP9, secreted); E. coli (MMP3)
Nature of the test: proMMP9/MMP3 P126 Activation Assay. Type of test: biochemical. The procedure:
proMMP9/MMP3 P126 Activation Assay
The reaction volume was 50 μL. […] Reactivity of residual MMP3 towards P-126 substrate was minimal under these conditions.

Test [2] deals with T2, proMMP9(20-445;ΔFnII) (SEQ ID NO:6) (Homo sapiens, UniProt P14780, DEL216-390).
T2 construct: start methionine (N); made in house; host or cells: E. coli BL21(DE3) RIL
T2 sequence (P14780 with tags, fused parts or gaps DEL216-390): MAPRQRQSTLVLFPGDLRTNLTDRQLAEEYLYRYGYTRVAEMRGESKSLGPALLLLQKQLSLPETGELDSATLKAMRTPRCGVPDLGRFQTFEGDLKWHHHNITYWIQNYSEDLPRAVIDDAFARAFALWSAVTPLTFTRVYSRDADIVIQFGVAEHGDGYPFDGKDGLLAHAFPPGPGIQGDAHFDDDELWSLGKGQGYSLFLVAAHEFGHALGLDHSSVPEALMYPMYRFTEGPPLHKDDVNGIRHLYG
Put plainly: ThermoFluor binding assay with proMMP9(20-445;ΔFnII). The protocol: The ThermoFluor® (TF) assay is a 384-well plate-based binding assay that measures thermal stability of proteins (Biomol Screen 2001, 6, 429-40; Biochemistry 2005, 44, 5258-66). The experiments were carried out using instruments available from Johnson & Johnson Pharmaceutical Research & Development, LLC. TF dye used in all experiments was […] (1,8-ANS) (Invitrogen: A-47).
Compounds were arranged in a pre-dispensed plate (Greiner Bio-one: 781280), wherein compounds were serially diluted in 100% DMSO across 11 columns within a series. Columns 12 and 24 were used as DMSO reference and contained no compound. For multiple compound concentration-response experiments, the compound aliquots ([…]) were robotically predispensed directly into black 384-well polypropylene PCR microplates (Abgene: TF-0384/k) using a Cartesian Hummingbird liquid handler (DigiLab, Holliston, Mass.). Following compound dispense, protein and dye solutions were added to achieve the final assay volume of 3 μL. The assay solutions were overlayed with 1 μL of silicone oil (Fluka, type DC 200: 85411) to prevent evaporation.
Assay plates were robotically loaded onto a thermostatically controlled PCR-type thermal block and then heated from 40 to 90° C. at a ramp-rate of 1° C./min for all experiments. Fluorescence was measured by continuous illumination with UV light (Hamamatsu LC6) supplied via fiber optics and filtered through a band-pass filter (380-400 nm; >60D cutoff). Fluorescence emission of the entire 384-well plate was detected by measuring light intensity using a CCD camera (Sensys, Roper Scientific) filtered to detect 500±25 nm, resulting in simultaneous and independent readings of all 384 wells. A single image with 20-sec exposure time was collected at each temperature, and the sum of the pixel intensity in a given area of the assay plate was recorded vs temperature and fit to standard equations to yield the Tm (J Biomol Screen 2001, 6, 429-40).
Thermodynamic parameters necessary for fitting compound binding for each proMMP were estimated by differential scanning calorimetry (DSC) and from ThermoFluor® data. The heat capacity of unfolding for each protein was estimated from the molecular weight and from ThermoFluor® dosing data.
ThermoFluor® with proMMP9(20-445;ΔFnII) (SEQ ID NO:6)
The protein sample preparations included a desalting buffer exchange step via a PD-10 gravity column (GE Healthcare). The desalting buffer exchange was performed prior to diluting the protein to the final assay concentration of 2.8 μM proMMP9(20-445;ΔFnII) (SEQ ID NO:6). The concentration of proMMP9(20-445;ΔFnII) (SEQ ID NO:6) was determined spectrophotometrically based on a calculated extinction coefficient of ε280=39880 M^−1cm^−1, a calculated molecular weight of 28.2 kDa, and calculated pI of 5.5. ThermoFluor® reference conditions were define as follows: 80 μg/mL (2.8 μM) proMMP9(20-445;ΔFnII) (SEQ ID NO:6), 50 μM 1,8-ANS, pH 7.0 Buffer (50 mM HEPES pH 7.0, 100 mM NaCl, 0.001% Tween-20, 2.5 mM MgCl2, 300 μM CaCl2). The thermodynamic parameters for proMMP9(20-445;ΔFnII) (SEQ ID NO:6) are as follows: Tm (° C.)=72 (+/−0.1), ΔUH(Tm) (cal mol^−1)=160000(+/−5000), ΔUS(Tm) (cal mol^−1 K^−1)=434, ΔUCp (cal mol^−1 K^−1)=2400.
(In DSF a fluorescence change marks the thermal transition of the protein.)

Molecules are shown by their SMILES. Counter-ions that a name gives are not always drawn.

T1 sequence (P14780 20-707 R574P): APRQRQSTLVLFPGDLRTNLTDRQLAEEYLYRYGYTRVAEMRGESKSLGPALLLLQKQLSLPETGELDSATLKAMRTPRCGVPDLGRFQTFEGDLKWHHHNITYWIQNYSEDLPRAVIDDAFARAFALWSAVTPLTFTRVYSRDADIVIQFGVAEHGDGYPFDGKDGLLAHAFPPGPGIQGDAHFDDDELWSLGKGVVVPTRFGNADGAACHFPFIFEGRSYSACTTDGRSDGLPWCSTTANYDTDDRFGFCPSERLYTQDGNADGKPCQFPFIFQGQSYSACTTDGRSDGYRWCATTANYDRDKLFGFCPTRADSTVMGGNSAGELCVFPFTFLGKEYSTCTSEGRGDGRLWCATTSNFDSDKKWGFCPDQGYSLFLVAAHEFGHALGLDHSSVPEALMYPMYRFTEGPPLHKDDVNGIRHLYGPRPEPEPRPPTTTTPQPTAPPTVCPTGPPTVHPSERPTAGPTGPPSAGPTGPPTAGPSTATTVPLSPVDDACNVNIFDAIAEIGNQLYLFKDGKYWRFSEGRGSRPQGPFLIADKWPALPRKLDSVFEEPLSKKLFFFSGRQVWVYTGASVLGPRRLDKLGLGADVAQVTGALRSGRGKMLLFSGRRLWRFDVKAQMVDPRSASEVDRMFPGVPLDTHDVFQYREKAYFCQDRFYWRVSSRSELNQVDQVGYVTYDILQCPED

Turning to `CC(C)Oc1ccc(S(N)(=O)=O)cc1Nc1nc(-c2ccc(C(=O)NCC3CCN(C)CC3)nc2)cs1` [Example 95, 5-(2-((2-Isopropoxy-5-sulfamoylphenyl)amino)thiazol-4-yl)-N-((1-methylpiperidin-4-yl)methyl)picolinamide.TFA], it took 310 nM to reach half-maximal inhibition in test [1] (IC50). For the compound `CC(C)Oc1ccc(S(N)(=O)=O)cc1Nc1nc(-c2ccnc(Cl)c2)cs1` [Intermediate 9, 3-[4-(2-Chloro-pyridin-4-yl)-thiazol-2-ylamino]-4-isopropoxy-benzenesulfonamide.TFA], in test [2], the Kd came out at 96000 nM. This lies in the double-digit micromolar range.

In the case of `CC(C)Oc1ccc(S(N)(=O)=O)cc1Nc1nc(-c2ccc(N3CCN(CC4CC4)CC3)nc2)cs1` [Example 71, 3-((4-(6-(4-(Cyclopropylmethyl)piperazin-1-yl)pyridin-3-yl)thiazol-2-yl)amino)-4-isopropoxybenzenesulfonamide.TFA], the Kd in test [2] is 75 nM. Besides, the 50% inhibitory concentration (IC50) in test [1] was determined as 170 nM.

Consider `CC(C)Oc1ccc(S(N)(=O)=O)cc1Nc1nc(-c2ccc(C(=O)NC3CCN(C(C)C)CC3)nc2)cs1` [Example 88, 5-(2-((2-Isopropoxy-5-sulfamoylphenyl)amino)thiazol-4-yl)-N-(1-isopropylpiperidin-4-yl)picolinamide.TFA], for which the Kd in test [2] came to 260 nM. The compound also came in with a 50% inhibitory concentration (IC50) in test [1] of 330 nM. Taken in the same sequence, the figures for `CC(C)Oc1ccc(S(N)(=O)=O)cc1Nc1nc(-c2ccc(N3C[C@@H](C)N[C@@H](C)C3)nc2)cs1` [Example 68, 3-((4-(6-(cis-3,5-Dimethylpiperazin-1-yl)pyridin-3-yl)thiazol-2-yl)amino)-4-isopropoxybenzenesulfonamide.TFA] were 71 nM and 130 nM. Taken in the same sequence, the figures for `CC(C)Oc1ccc(S(N)(=O)=O)cc1Nc1nc(-c2ccc(C(=O)NCC3CCOCC3)nc2)cs1` [Example 91, 5-(2-((2-Isopropoxy-5-sulfamoylphenyl)amino)thiazol-4-yl)-N-((tetrahydro-2H-pyran-4-yl)methyl)picolinamide.TFA] were 2400 nM and 640 nM. Taken in the same sequence, the figures for `CC(C)Oc1ccc(S(N)(=O)=O)cc1Nc1nc(-c2ccc(C3=CCNCC3)nc2)cs1` [Example 72, 4-Isopropoxy-3-((4-(1′,2′,3′,6′-tetrahydro-[2,4′-bipyridin]-5-yl)thiazol-2-yl)amino)benzenesulfonamide.TFA] were 110 nM and 140 nM. As for `CC(C)Oc1ccc(S(N)(=O)=O)cc1Nc1nc(-c2ccc(C3CCNCC3)nc2)cs1` [Example 81, 4-Isopropoxy-3-((4-(6-(piperidin-4-yl)pyridin-3-yl)thiazol-2-yl)amino)benzenesulfonamide.TFA], binding in test [2] was put at a Kd of 130 nM. This compound also yielded a half-maximal inhibitory concentration (IC50) in test [1] of 130 nM. `CC(C)Oc1ccc(S(N)(=O)=O)cc1Nc1nc(-c2ccc(N3CCn4ccnc4C3)nc2)cs1` [Example 82, 3-((4-(6-(5,6-Dihydroimidazo[1,2-a]pyrazin-7(8H)-yl)pyridin-3-yl)thiazol-2-yl)amino)-4-isopropoxybenzenesulfonamide.TFA]: binding in test [2] was characterised by a dissociation constant (Kd) of 99 nM. In addition, in test [1], it took 370 nM to reach half-maximal inhibition (IC50). Taken in the same sequence, the figures for `CC(C)Oc1ccc(S(N)(=O)=O)cc1Nc1nc(-c2ccc(N(C)CCO)nc2)cs1` [Example 75, 3-((4-(6-((2-Hydroxyethyl)(methyl)amino)pyridin-3-yl)thiazol-2-yl)amino)-4-isopropoxybenzenesulfonamide.TFA] were 280 nM and 110 nM.

In test [2], `CC(C)Oc1ccc(S(N)(=O)=O)cc1Nc1nc(-c2ccc(C(=O)NC3CCCN(C)C3)nc2)cs1` (stereo not drawn) [Example 89, 5-(2-((2-Isopropoxy-5-sulfamoylphenyl)amino)thiazol-4-yl)-N-(1-methylpiperidin-3-yl)picolinamide.TFA] gave a dissociation constant (Kd) of 360 nM. In test [1], this compound had an IC50 of 350 nM. Taken in the same sequence, the figures for `CC1CN(c2ccc(-c3csc(Nc4cc(S(N)(=O)=O)ccc4OC(C)C)n3)cn2)CC(C)N1` (stereo not drawn) [Example 67, 3-((4-(6-(3,5-Dimethylpiperazin-1-yl)pyridin-3-yl)thiazol-2-yl)amino)-4-isopropoxybenzenesulfonamide.TFA] were 71 nM and 130 nM. Taken in the same sequence, the figures for `CC(C)Oc1ccc(S(N)(=O)=O)cc1Nc1nc(-c2ccc(N3CCNC(C)(C)C3)nc2)cs1` [Example 69, 3-((4-(6-(3,3-Dimethylpiperazin-1-yl)pyridin-3-yl)thiazol-2-yl)amino)-4-isopropoxybenzenesulfonamide.TFA] were 65 nM and 100 nM. Compound `CC(C)Oc1ccc(S(N)(=O)=O)cc1Nc1nc(-c2ccc(N3CCC(CO)CC3)nc2)cs1` [Example 79, 3-((4-(6-(4-(Hydroxymethyl)piperidin-1-yl)pyridin-3-yl)thiazol-2-yl)amino)-4-isopropoxybenzenesulfonamide.TFA] registered a Kd in test [2] of 150 nM. Besides, inhibition in test [1] was half-maximal at 340 nM (IC50). Taken in the same sequence, the figures for `COCCNC(=O)c1ccc(-c2csc(Nc3cc(S(N)(=O)=O)ccc3OC(C)C)n2)cn1` [Example 90, 5-(2-((2-Isopropoxy-5-sulfamoylphenyl)amino)thiazol-4-yl)-N-(2-methoxyethyl)picolinamide.TFA] were 970 nM and 1700 nM.

In test [2], `COC1CCN(c2ccc(-c3csc(Nc4cc(S(N)(=O)=O)ccc4OC(C)C)n3)cn2)CC1` [Example 78, 4-Isopropoxy-3-((4-(6-(4-methoxypiperidin-1-yl)pyridin-3-yl)thiazol-2-yl)amino)benzenesulfonamide.TFA] showed a dissociation constant (Kd) of 340 nM. The IC50 in test [1] was around 300 nM. In test [1], `CC(C)Oc1ccc(S(N)(=O)=O)cc1Nc1nc(-c2ccc(N3CCN(C4CC4)CC3)nc2)cs1` [Example 61, 3-((4-(6-(4-Cyclopropylpiperazin-1-yl)pyridin-3-yl)thiazol-2-yl)amino)-4-isopropoxybenzenesulfonamide.TFA] returned an IC50 of 300 nM. Turning to `CCOC(=O)CCNC(=O)c1ccc(-c2csc(Nc3cc(S(N)(=O)=O)ccc3OC(C)C)n2)cn1` [Example 87, Ethyl 3-(5-(2-((2-isopropoxy-5-sulfamoylphenyl)amino)thiazol-4-yl)picolinamido)propanoate.TFA], in test [2], binding was put at a Kd of 360 nM. This compound also returned an IC50 in test [1] of around 2000 nM. Taken in the same sequence, the figures for `CC(=O)N1CCN(c2ccc(-c3csc(Nc4cc(S(N)(=O)=O)ccc4OC(C)C)n3)cn2)CC1` [Example 65, 3-((4-(6-(4-Acetylpiperazin-1-yl)pyridin-3-yl)thiazol-2-yl)amino)-4-isopropoxybenzenesulfonamide.TFA] were 69 nM and 210 nM.

In turn, `CC1CCN(c2ccc(-c3csc(Nc4cc(S(N)(=O)=O)ccc4OC(C)C)n3)cn2)CC1` [Example 77, 4-Isopropoxy-3-((4-(6-(4-methylpiperidin-1-yl)pyridin-3-yl)thiazol-2-yl)amino)benzenesulfonamide.TFA] gave an equilibrium dissociation constant (Kd) in test [2] of 1900 nM. In test [1], this compound came in with an IC50 above 20000 nM.

`CC(C)Oc1ccc(S(N)(=O)=O)cc1Nc1nc(-c2ccc(C(=O)NC3CN4CCC3CC4)nc2)cs1` (stereo not drawn) [Example 86, 5-(2-((2-Isopropoxy-5-sulfamoylphenyl)amino)thiazol-4-yl)-N-(1-azabicyclo[2.2.2]octan-3-yl)picolinamide.TFA]: the equilibrium dissociation constant (Kd) in test [2] came to 460 nM. The compound also registered an IC50 in test [1] of 400 nM.

As a reminder, the IC50 is the concentration that gives 50% inhibition. A higher IC50 goes with a need for much substance. For orientation: Kd means the concentration at which binding is half-saturated. Low readings indicate tighter binding, high ones weaker binding.

The record behind these values is patent US20120129843A1, “PYRIDYL-THIAZOLYL INHIBITORS OF PRO-MATRIX METALLOPROTEINASE ACTIVATION” (priority 2010, published 2012).
